Data as given in PubChem BioAssay AID2060605 (Molecular Pharmacology Branch, DTP, NCI, 2025).

Test system: 947758-054-R-J2-PDC spheroid growth, percent test/control
Test: Anticancer human tumor 947758-054-R-J2-PDC patient-derived colon adenocarcinoma cell line growth inhibition [CLK]
Settings: spheroids with HUVEC and MSC; for IC50: curve of first compound; for viability, T/C: stronger effect = lower value
Summary of the method: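 Multi-cell-type spheroids combined patient-derived tumor cells with HUVEC endothelial cells and human mesenchymal stem cells. Paired agents were dosed in half-log steps down from about clinical Cmax, or from 10 microM where Cmax was unknown.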

[1] = second compound 0.0316 µM, first compound 0.0316 µM
[2] = second compound 0.0316 µM, first compound 0.1 µM
[3] = second compound 0.0316 µM, first compound 0.316 µM
[4] = second compound 0.0316 µM, first compound 1 µM
[5] = second compound 0.0316 µM, first compound 3.16 µM
[6] = second compound 0.0316 µM, first compound 10 µM
[7] = second compound 0.1 µM, first compound 0.0316 µM
[8] = second compound 0.1 µM, first compound 0.1 µM
[9] = second compound 0.1 µM, first compound 0.316 µM
[10] = second compound 0.1 µM, first compound 1 µM
[11] = second compound 0.1 µM, first compound 3.16 µM
[12] = second compound 0.1 µM, first compound 10 µM
[13] = second compound 0.316 µM, first compound 0.0316 µM
[14] = second compound 0.316 µM, first compound 0.1 µM
[15] = second compound 0.316 µM, first compound 0.316 µM
[16] = second compound 0.316 µM, first compound 1 µM
[17] = second compound 0.316 µM, first compound 3.16 µM
[18] = second compound 0.316 µM, first compound 10 µM
[19] = second compound 1 µM, first compound 0.0316 µM
[20] = second compound 1 µM, first compound 0.1 µM
[21] = second compound 1 µM, first compound 0.316 µM
[22] = second compound 1 µM, first compound 1 µM
[23] = second compound 1 µM, first compound 3.16 µM
[24] = second compound 1 µM, first compound 10 µM
[25] = second compound 3.16 µM, first compound 0.0316 µM
[26] = second compound 3.16 µM, first compound 0.1 µM
[27] = second compound 3.16 µM, first compound 0.316 µM
[28] = second compound 3.16 µM, first compound 1 µM
[29] = second compound 3.16 µM, first compound 3.16 µM
[30] = second compound 3.16 µM, first compound 10 µM
[31] = second compound 10 µM, first compound 0.0316 µM
[32] = second compound 10 µM, first compound 0.1 µM
[33] = second compound 10 µM, first compound 0.316 µM
[34] = second compound 10 µM, first compound 1 µM
[35] = second compound 10 µM, first compound 3.16 µM
[36] = second compound 10 µM, first compound 10 µM
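Also: spheroids exposed to compounds for one week before readout.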
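For viability, T/C in this document: 100% = DMSO vehicle control wells.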

CC(=O)O[C@H]1C(=O)[C@@]2(C)[C@H]([C@H](OC(=O)c3ccccc3)[C@]3(O)C[C@H](OC(=O)[C@H](O)[C@@H](NC(=O)c4ccccc4)c4ccccc4)C(C)=C1C3(C)C)[C@]1(OC(C)=O)CO[C@@H]1C[C@@H]2O + CN1CCN(c2cc(C(=O)Nc3cc4cc(-c5cnn(C)c5)ccc4cn3)ccn2)CC1
IC50 (second compound 0.0316 µM): < 0.0316 µM
IC50 (second compound 0.1 µM): < 0.0316 µM
IC50 (second compound 0.316 µM): < 0.0316 µM
IC50 (second compound 1 µM): < 0.0316 µM
IC50 (second compound 3.16 µM): < 0.0316 µM
IC50 (second compound 10 µM): < 0.0316 µM
viability, T/C [1]: 7.4%
viability, T/C [2]: 6.03%
viability, T/C [3]: 4.94%
viability, T/C [4]: 5.77%
viability, T/C [5]: 6.99%
viability, T/C [6]: 11.8%
viability, T/C [7]: 5.33%
viability, T/C [8]: 5.11%
viability, T/C [9]: 4.6%
viability, T/C [10]: 4.61%
viability, T/C [11]: 5.41%
viability, T/C [12]: 8.84%
viability, T/C [13]: 1.4%
viability, T/C [14]: 1.86%
viability, T/C [15]: 2.27%
viability, T/C [16]: 1.92%
viability, T/C [17]: 2.04%
viability, T/C [18]: 2.67%
viability, T/C [19]: 0.1%
viability, T/C [20]: 0.12%
viability, T/C [21]: 0.3%
viability, T/C [22]: 0.08%
viability, T/C [23]: 0.09%
viability, T/C [24]: 0.09%
viability, T/C [25]: 0.16%
viability, T/C [26]: 0.22%
viability, T/C [27]: 0.21%
viability, T/C [28]: 0.14%
viability, T/C [29]: 1.02%
viability, T/C [30]: 0.58%
viability, T/C [31]: 1.41%
viability, T/C [32]: 0.29%
viability, T/C [33]: 0.23%
viability, T/C [34]: 0.25%
viability, T/C [35]: 0.27%
viability, T/C [36]: 0.7%

CCc1c2c(nc3ccc(O)cc13)-c1cc3c(c(=O)n1C2)COC(=O)[C@]3(O)CC + CN1CCN(c2cc(C(=O)Nc3cc4cc(-c5cnn(C)c5)ccc4cn3)ccn2)CC1
IC50 (second compound 0.0316 µM): 0.00783 µM
IC50 (second compound 0.1 µM): 0.00327 µM
IC50 (second compound 0.316 µM): < 0.00316 µM
IC50 (second compound 1 µM): < 0.00316 µM
IC50 (second compound 3.16 µM): < 0.00316 µM
IC50 (second compound 10 µM): < 0.00316 µM
viability, T/C (second compound 0.0316 µM, first compound 0.00316 µM): 98.9%
viability, T/C (second compound 0.0316 µM, first compound 0.01 µM): 32.5%
viability, T/C [1]: 22.7%
viability, T/C [2]: 16.4%
viability, T/C [3]: 6.6%
viability, T/C [4]: 3.27%
viability, T/C (second compound 0.1 µM, first compound 0.00316 µM): 51%
viability, T/C (second compound 0.1 µM, first compound 0.01 µM): 29.2%
viability, T/C [7]: 19.8%
viability, T/C [8]: 9.54%
viability, T/C [9]: 3.86%
viability, T/C [10]: 2.52%
viability, T/C (second compound 0.316 µM, first compound 0.00316 µM): 1.89%
viability, T/C (second compound 0.316 µM, first compound 0.01 µM): 2.41%
viability, T/C [13]: 1.16%
viability, T/C [14]: 1.27%
viability, T/C [15]: 0.15%
viability, T/C [16]: 0.45%
viability, T/C (second compound 1 µM, first compound 0.00316 µM): 0.1%
viability, T/C (second compound 1 µM, first compound 0.01 µM): 0.11%
viability, T/C [19]: 0.12%
viability, T/C [20]: 0.09%
viability, T/C [21]: 1.68%
viability, T/C [22]: 0.14%
viability, T/C (second compound 3.16 µM, first compound 0.00316 µM): 0.18%
viability, T/C (second compound 3.16 µM, first compound 0.01 µM): 0.26%
viability, T/C [25]: 0.41%
viability, T/C [26]: 0.63%
viability, T/C [27]: 0.68%
viability, T/C [28]: 1.64%
viability, T/C (second compound 10 µM, first compound 0.00316 µM): 0.21%
viability, T/C (second compound 10 µM, first compound 0.01 µM): 0.3%
viability, T/C [31]: 0.79%
viability, T/C [32]: 1.24%
viability, T/C [33]: 1.43%
viability, T/C [34]: 1.35%

O=c1[nH]cc(F)c(=O)[nH]1 + CN1CCN(c2cc(C(=O)Nc3cc4cc(-c5cnn(C)c5)ccc4cn3)ccn2)CC1
IC50 (second compound 0.0316 µM): 8.26 µM
IC50 (second compound 0.1 µM): 6.15 µM
IC50 (second compound 0.316 µM): < 0.0316 µM
IC50 (second compound 1 µM): < 0.0316 µM
IC50 (second compound 3.16 µM): < 0.0316 µM
IC50 (second compound 10 µM): < 0.0316 µM
viability, T/C [1]: 124%
viability, T/C [2]: 113%
viability, T/C [3]: 103%
viability, T/C [4]: 143%
viability, T/C [5]: 83.8%
viability, T/C [6]: 43.2%
viability, T/C [7]: 150%
viability, T/C [8]: 167%
viability, T/C [9]: 159%
viability, T/C [10]: 166%
viability, T/C [11]: 69.1%
viability, T/C [12]: 36%
viability, T/C [13]: 4.49%
viability, T/C [14]: 7.16%
viability, T/C [15]: 4.59%
viability, T/C [16]: 5.49%
viability, T/C [17]: 4.38%
viability, T/C [18]: 3.92%
viability, T/C [19]: 0.14%
viability, T/C [20]: 0.31%
viability, T/C [21]: 1.1%
viability, T/C [22]: 0.1%
viability, T/C [23]: 2.13%
viability, T/C [24]: 0.12%
viability, T/C [25]: 0.24%
viability, T/C [26]: 1.5%
viability, T/C [27]: 0.14%
viability, T/C [28]: 0.16%
viability, T/C [29]: 0.18%
viability, T/C [30]: 2.35%
viability, T/C [31]: 0.67%
viability, T/C [32]: 0.21%
viability, T/C [33]: 0.25%
viability, T/C [34]: 0.21%
viability, T/C [35]: 1.51%
viability, T/C [36]: 0.31%
